Data on two compounds can be found in patent EP0768085A1, “ANTIBACTERIAL AGENT” (DAIICHI PHARMACEUTICAL CO., LTD., priority 1994, dated 1996).

≈ marks a conversion by molar mass, not a printed value.

Data set [1] concerns methicillin-resistant Staphylococcus aureus (MRSA) from humans. Kind of data set: Antibacterial activity (IC), agar as in Example 8 (Example 19, Table 52). It counts as cell-based. The following applies: 18 h. Summed up:
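MRSA human isolate at 10^6 CFU/ml on Mueller-Hinton agar containing compound at 100, 10 or 1 µg/ml, grown 18 h at 37 °C. IC is the lowest tested level that inhibited growth, binned as ≤100, ≤10 or ≤1 µg/ml.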

A further data set in a line: in vivo. The conditions noted are these: mouse, oral administration, single dose, suspended in aqueous 0.5% CMC solution, male mice, observed for 14 days. As to the method:
Acute toxicity (LD50) of a ketonitrile derivative of the present invention (Compound No. 4) was tested using male mice (Slc:ddY, 5 weeks old). To groups of each 5 mice, the compounds suspended in aqueous 0.5% CMC solution were forcibly dosed orally at a single time so that the final dosages of 707, 1,000, 1,414, and 2,000 mg/kg were attained. […] As a result, LD50 value under conditions of oral administration was estimated to be higher than 2,000 mg/kg. Thus, the compound was confirmed to be quite non-toxic.
To groups of each 5 mice, the compounds suspended in aqueous 0.5% CMC solution were forcibly dosed orally at a single time so that the final dosages of 500, 1,000, 1,500, and 2,000 mg/kg were attained. […] As a result, the LD50 value was estimated to be higher than 2,000 mg/kg. Thus, the compounds were confirmed to be quite non-toxic.

The subject of data set [2] is Staphylococcus aureus (209-P). Description: Antibacterial activity (IC), agar as in Example 8 (Example 15, Table 48). It counts as cell-based. The following applies: 18 h. Summed up:
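Samples in DMSO, diluted with sterile water, incorporated into Mueller-Hinton agar at 1, 10 and 100 µg/ml final. Bacteria seeded at 10^6 CFU/ml and grown 18 h at 37°C. Inhibition read as turbidity; values reported as IC ranges rather than exact MICs.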

The test system of data set [3] is Pasteurella multocida (Kobe-6). Kind of data set: Antibacterial activity (IC), agar as in Example 8 (Example 17, Table 50). It counts as cell-based. The conditions noted are these: 18 h, origin pig. Summed up: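 Agar dilution on Mueller-Hinton agar with compound at 100, 10 and 1 µg/ml, inoculated at 10^6 CFU/ml with pig-origin strain Kobe-6. After 18 h at 37 °C, IC scored from turbidity and reported as a band (≤100, ≤10, ≤1 µg/ml).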

Data set [4] relates to Streptococcus aureus (TI-1). Kind of data set: Antibacterial activity (IC), agar as in Example 8 (Example 16, Table 49). Type of data set: cell-based. The conditions noted are these: 18 h. Summed up: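 Compound at final 100, 10 or 1 µg/ml in Mueller-Hinton agar, inoculated with […] aureus (TI-1) at 10^6 CFU/ml and cultured 37°C for 18 h. Inhibition read from medium turbidity; IC given as 100-10, 10-1 or ≤1 µg/ml ranges from 2-fold dilution.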

A further data set deals with Pasteurella from fish. Kind of data set: Antibacterial activity (IC), agar as in Example 8, media with 1.5% NaCl, 25°C (Example 20, Tables 53-55). It counts as cell-based. Summed up:
(§1)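 Growth inhibition was scored by turbidity after culture at 25°C, with IC bands set from 2-fold-dilution MIC-equivalents. Samples were tested at final 100, 10 and 1 µg/ml in Mueller-Hinton agar with 1.5% NaCl, seeded with 10^6 CFU/ml of the fish isolates.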

The next data set concerns Enterococcus from fish. Described as above. Type of data set: cell-based. In short, it runs like this: as §1
Data set [5] can be described thus: Absorption test, concentration of the compounds in serum by HPLC. Type of data set: in vivo. The conditions noted are these: mouse, mice, 100 mg/kg body weight, oral administration, serum at 1, 3, 5 and 24 hours, read-out: time at which concentration in serum reached a maximum. How it is done: An absorption test was performed using ketonitrile derivatives of the present invention (Compound Nos. […] and 155) on mice by dosing the derivatives in amounts of 100 mg/kg body weight. One, three, five, and 24 hours after administration of the compounds, blood was harvested and serum was separated therefrom. The concentration of the compounds in serum was determined by HPLC. As a result, Compound No. 155 and Compound No. 101 reached a maximum in concentration after 1 hour and 3 hours of administration, respectively.

`CC(Oc1cccc(Oc2ccc(C(F)(F)F)cc2Cl)c1)C(=O)C(C#N)c1ccc(Cl)c(Cl)c1` (centres unmarked) [Compound No. 103, 4-[3-(2-chloro-4-trifluoromethylphenoxy)phenoxy]-2-(3,4-dichlorophenyl)-3-oxopentanonitrile]: the MIC in data set [1] (MRSA strain 891179), in data set [1] (MRSA strain 891185), in data set [1] (MRSA strain 891187), in data set [1] (MRSA strain 891192), in data set [1] (MRSA strain 900048) and in data set [1] (MRSA strain 900056) was at most 1 µg/mL each time. Besides, the MIC is at most 1 µg/mL in data set [2]; 1 to 10 µg/mL (≈ 1.89 to 18.9 µM) in data set [3]; at most 1 µg/mL in data set [4]; 1 to 10 µg/mL (≈ 1.89 to 18.9 µM) in the data set with Pasteurella from fish (Pasteurella piscicida KP94-02); at most 1 µg/mL against Enterococcus from fish (Enterococcus Seriolicida SE94-002). In addition, the LD50 at 336 h in “in vivo” was above 2000 mg/kg. Further, the IC was ≤10 (10-1 µg/ml) in the data set with Pasteurella from fish (Pasteurella piscicida KP94-04); ≤10 (10-1 µg/ml) in the data set on Pasteurella from fish (Pasteurella piscicida KP94-05); ≤10 (10-1 µg/ml) in the data set on Pasteurella from fish (Pasteurella piscicida KP94-06); at most 1 µg/mL in the data set with Enterococcus from fish (Enterococcus Seriolicida HI); at most 1 µg/mL in the data set with Enterococcus from fish (Enterococcus Seriolicida KG86050); at most 1 µg/mL with Enterococcus from fish (Enterococcus Seriolicida MS89060). The IC in the data set on Enterococcus from fish (Enterococcus Seriolicida MS89064), in the data set on Enterococcus from fish (Enterococcus Seriolicida MS89066), in the data set with Enterococcus from fish (Enterococcus Seriolicida MS89068), with Enterococcus from fish (Enterococcus Seriolicida SE94-001), in the data set with Enterococcus from fish (Enterococcus Seriolicida SE94-003) and in the data set with Enterococcus from fish (Enterococcus Seriolicida SE94-004) was at most 1 µg/mL each time. The same compound showed an IC with Enterococcus from fish (Enterococcus Seriolicida SE94-005) of at most 1 µg/mL.

As for `CC(Oc1cccc(Oc2ncc(C(F)(F)F)cc2Cl)c1)C(=O)C(C#N)c1ccc(Cl)c(Cl)c1` (centres unmarked) [Compound No. 101, 4-[3-(3-chloro-5-trifluoromethyl-2-pyridyloxy)phenoxy]-2-(3,4-dichlorophenyl)-3-oxopentanonitrile], in data set [5], the Tmax was 3 h.
